Here are results for 21 compounds from PMC6222747, “Synthesis and Structure-Activity Relationship of Daphnetin Derivatives as Potent Antioxidant Agents” (Molecules : A Journal of Synthetic Chemistry and Natural …, 2018).

A short description of data set [1]: DPPH radical scavenging assay. The data set is classed as biochemical. The conditions noted are these: for EC50: DPPH radical scavenging, 30 min at room temperature, absorbance 517 nm, triplicate; for DPPH antioxidant activity compared with DAP 1, result in words: DPPH assay. On the procedure: (§1) The antioxidant activity is influenced by many factors, which cannot be fully described with a single antioxidant assay. Thus, in this study, antioxidant activities in vitro were evaluated using the free radical scavenging effect on 2,2′-diphenyl-1-picrylhydrazyl (DPPH), 2,2′-azinobis-(3-ethylbenzthiazoline-6-sulfonate) cation (ABTS^+). and the ferric reducing power (FRAP) assay, respectively, according to the literature with a slight modification.
Each sample in an ethanol solution (0.1 mL) was added to 3.9 mL DPPH ethanol solution (0.1 mmol/L). The solution was vortexed for 10 s and incubated at room temperature for 30 min. […] The Trolox standard solution (concentration range: 0–0.4 mmol/L) in ethanol was analyzed under the same conditions as those used for calibration. […]

Data set [2] can be described thus: ABTS+ radical scavenging assay. The data set is classed as biochemical. To be noted: 3 min at room temperature, absorbance 734 nm, triplicate. On the procedure: as §1
The mixture was incubated in the dark at room temperature for 15–16 h before use. […] Each sample solution (0.1 mL) was added to 3.9 mL ABTS^+ solution, and the absorbance was measured at room temperature after 3 min. The Trolox standard solution (concentration range: 0–0.4 mmol/L) in ethanol was analyzed under the same conditions as those used for the calibration. […]

Data set [3] in a line: Ferric reducing power (FRAP) assay. It is filed as biochemical. The conditions noted are these: for reducing antioxidant power (FRAP), result in words: compared with daphnetin or the parent compound; for reducing antioxidant power, fold higher than that of the standard antioxidant Trolox: relative to Trolox. On the procedure:
as §1
The FRAP (ferric reducing antioxidant power) reagent was prepared with acetate buffer (300 mmol/L, pH 3.6), 2,4,6-tripyridyl-s-triazine (TPTZ) (10 mmol/L in HCl, 40 mmol/L) and FeCl3 (20 mmol/L). The proportions were 10:1:1 (v:v:v), respectively. Each sample solution was added to the FRAP reagent (1:30, v:v) and incubated at 37 °C for 5 min. The absorbance was determined at 593 nm using a spectrophotometer (Hitachi U-2800 Spectrophotometer, Tokyo, Japan). The Trolox standard solution (concentration range: 0–0.4 mmol/L) in ethanol was analyzed under the same conditions as those used for the calibration. The values of the reducing power were determined using a calibration curve of Trolox and expressed as the Trolox equivalent ([…], mmolTrolox/mmol sample).

A short description of data set [4]: Metabolic stability assay in vitro (UGT and COMT incubation system, S9 fraction). It is filed as in vitro ADME, human. To be noted: for half-life: UGT and COMT incubation system, pooled human S9, 2 mM UDPGA and 0.2 mM SAM, 37 °C, pH 7.4, read-out: metabolic elimination t1/2. From the text:
The simultaneous improvement of utility as a drug and pharmacological activity is still a challenge for the structural optimization of lead compounds. From the view of the chemical structure, the catechol group is not only the pharmacophore of the coumarins but also the susceptible group for the attack of phase II metabolic enzymes. As phenolic hydroxyls, catechol coumarins primarily undergo conjugative reactions mediated by phase II metabolizing enzymes, including uridine-5-diphosphate glucuronosyl transferase (UGT) and catechol-O-methyltransferase (COMT). […] In summary, 4-carbethoxyl DAP 9 holds strong potential to be developed as an antioxidant agent with excellent antioxidant activity and good pharmacokinetic properties.
Metabolic stability assay in vitro
To determine the effects of a combination of glucuronidation and methylation, daphnetin and compound 9 were
incubated with S9 fraction in the presence of two cofactors (2 mM UDPGA and 0.2 mM SAM). The incubation mixture
contained pooled human S9 fraction (0.02 mg mL-1 protein), 5 mM MgCl2, 2 mM UDPGA, 0.2 mM SAM and 5 mM
daphnetin derivatives (dissolved in DMSO, final concentration 1%) in 200 mL of 50 mM Tris buffer (pH 7.4), as
described in the reported manuscript. Controls were incubated in the absence of UDPGA and SAM. After incubation at
37 °C for 0 to 6 0 min, the reactions were terminated by adding […] of cold acetonitrile. The samples were
centrifuged at 20 000 g for 20 min. The supernatants (200 mL) were subjected to assay for the time - dependent
esculetins depletion using HPLC.
Daphnetin and compound 9 were analyzed by a ultra - fast l iquid chromatography spectrometry system (Shimadzu,
Kyoto, Japan), equipped with two LC - 20AD pumps, a DGU - 20A3 vacuum degasser, a SIL - 20ACHT auto - sampler, a
CTO - 20AC column oven, an SPD - M 20A diode - array detector (DAD), a CBM - 20A communicati ons bus module, a […]
the equation: t1/2 = ln2/-k, where k represents the terminal elimination rate constant and is calculated as the negative […]

Data set [5] concerns mononuclear cells of umbilical blood. The arrangement: method as in PMID 15113635. The conditions noted are these: cited from earlier work.

Usually EC50 stands for the concentration that produces a half-maximal response. A high value points to a need for much substance. As for `Cc1c(C)c2c(c(C)c1O)CCC(C)(C(=O)O)O2` (stereo not shown) [Trolox, 6-hydroxy-2,5,7,8-tetramethylchroman-2-carboxylic acid, reference compound], the EC50 in data set [1] is 53.2 ± 2.02 µM; in data set [2] it was 241 ± 2.52 µM.

Consider `O=c1cc(C(F)(F)F)c2ccc(O)c(O)c2o1` [Compound 5, 7,8-Dihydroxy-4-trifluoromethyl-2H-chromen-2-one], for which the EC50 in data set [1] came out at 45.7 ± 1.26 µM; in data set [2] it was 75.2 ± 1.58 µM. Also, the “reducing antioxidant power (FRAP), result in words” value (“reducing antioxidant power (FRAP)” for short) in data set [3] is given as “three-fold increase in reducing antioxidant power”.

With `CC(=O)Oc1ccc2ccc(=O)oc2c1OC(C)=O` [Compound 12, 2-oxo-2H-Chromene-7,8-diyl diacetate], the EC50 in data set [1] was found to be 698 ± 5.22 µM; in data set [2], 4560 ± 50.1 µM.

For the compound `Cc1c(C(F)(F)F)c2ccc(O)c(O)c2oc1=O` [Compound 24, 7,8-Dihydroxy-3-methyl-4-(trifluoromethyl)-2H-chromen-2-one], the EC50 in data set [1] came out at 53.8 ± 2.25 µM; in data set [2], 107 ± 6.23 µM.

On to `O=c1oc2c(O)c(O)ccc2cc1-c1ccccc1` [Compound 13], for which the “DPPH antioxidant activity compared with DAP 1, result in words” value in data set [1] is listed as “more effective”. Also, the EC50 in data set [1] was 43.7 ± 2.08 µM; in data set [2], 108 ± 1.42 µM.

On to `O=c1oc2c(O)c(O)ccc2cc1-c1nc2ccccc2s1` [Compound 19], for which the EC50 in data set [1] came out at 71.3 ± 2.4 µM; in data set [2], 86.6 ± 3.17 µM. In data set [3], the “reducing antioxidant power (FRAP)” value is on record as “slightly reduced antioxidant activity”.

With “Methyl 2-(7,8-dihydroxy-2-oxo-2H-chromen-4-yl)acetic acid [Compound 10]”, the EC50 stood at 50.2 ± 1.12 µM in data set [1] and 222.7 ± 1.84 µM in data set [2]. Moreover, the “reducing antioxidant power (FRAP)” value in data set [3] is “significant decrease in antioxidant activity”.

For `N#Cc1cc2ccc(O)c(O)c2oc1=O` [Compound 14], the EC50 was 47 ± 2.05 µM in data set [1] and 95.8 ± 4.18 µM in data set [2]. Besides, in data set [3], the “reducing antioxidant power, fold higher than that of the standard antioxidant Trolox” value amounted to 3 fold.

For `NC(=O)c1c(-c2nc3ccccc3s2)c(=O)oc2c(O)c(O)ccc12` [Compound 22, 3-(benzo[d]thiazol-2-yl)-7,8-dihydroxy-2-oxo-2H-chromene-4-carboxamide], the EC50 in data set [1] worked out at 66.8 ± 1.38 µM; in data set [2], 122 ± 4.41 µM. In data set [3], the “reducing antioxidant power (FRAP)” value is “lower antioxidant activity compared with that of compound 19”.

As to `COc1cc2ccc(=O)oc2c(O)c1O` [Compound 11, Fraxetin, reference compound], the figures for the EC50 in data set [1] and in data set [2] were 45.6 ± 1.48 µM and 173 ± 4.83 µM, respectively.

In the case of `O=C(O)c1c(-c2nc3ccccc3s2)c(=O)oc2c(O)c(O)ccc12` [Compound 21, 3-(Benzo[d]thiazol-2-yl)-7,8-dihydroxy-2-oxo-2H-chromene-4-carboxylic acid], the EC50 in data set [1] was determined as 130 ± 3.54 µM; in data set [2], 108 ± 6.35 µM. For the same compound, the “reducing antioxidant power (FRAP)” value in data set [3] is on record as “significant decrease in antioxidant activity”.

As to `CC(=O)c1cc2ccc(O)c(O)c2oc1=O` [Compound 15], the concentration for a half-maximal effect (EC50) turned out to be 50.6 ± 0.61 µM in data set [1] and 80.52 ± 0.61 µM in data set [2]. Further, in data set [3], the “reducing antioxidant power, fold higher than that of the standard antioxidant Trolox” value was 3 fold.

For `CC(C)(C)c1cc(=O)oc2c(O)c(O)ccc12` [Compound 4, 7,8-Dihydroxy-4-tert-butyl-2H-chromen-2-one], the EC50 is 65.5 ± 2.84 µM in data set [1] and 234.7 ± 2.03 µM in data set [2]. In addition, the “reducing antioxidant power (FRAP)” value in data set [3] is reported as “decreased activities of daphnetin but were still superior to Trolox”.

Regarding `O=c1oc2c(O)c(O)ccc2c(-c2nnn[nH]2)c1-c1nc2ccccc2s1` [Compound 23, 3-(Benzo[d]thiazol-2-yl)-7,8-dihydroxy-4-(1H-tetrazol-5-yl)-2H-chromen-2-one], the EC50 is 168 ± 11.6 µM in data set [1] and 121.7 ± 0.22 µM in data set [2]. In addition, the “reducing antioxidant power (FRAP)” value in data set [3] was “lower antioxidant activity compared with that of compound 19”.

Turning to `[N-]=[N+]=NCc1cc(=O)oc2c(O)c(O)ccc12` [Compound 8, 7,8-Dihydroxy-4-azidemethyl-2H-chromen-2-one], the EC50 in data set [1] worked out at 62.2 ± 3.73 µM; in data set [2] it was 238 ± 4.47 µM. In addition, in data set [3], the “reducing antioxidant power (FRAP)” value is recorded as “markedly decreased antioxidant activity”.

On to `O=C(O)Cc1cc(=O)oc2c(O)c(O)ccc12` [Compound 9, 2-(7,8-Dihydroxy-2-oxo-2H-chromen-4-yl)acetic acid], for which the results for the EC50 in data set [1] and in data set [2] (listed as 4-CH2COOH DAP (9)) were 31.4 ± 0.68 µM and 72.3 ± 2.7 µM, respectively. Besides, the “reducing antioxidant power (FRAP)” value in data set [3] is “three-fold increase in reducing antioxidant power”. Also, the half-life in data set [4] stood at 96.5 min. Besides, the “t1/2 of compound 9 relative to that of compound 1” value in data set [4] (UGT and COMT incubation systems in vitro) was “five-fold longer”.

On to `CCOC(=O)c1cc2ccc(O)c(O)c2oc1=O` [Compound 17], for which the EC50 in data set [1] was found to be 44 ± 0.89 µM; in data set [2], 138.9 ± 0.14 µM. For the same compound, the “reducing antioxidant power (FRAP)” value in data set [3] is on record as “this situation did not change”.

Turning to `C#CCNC(=O)c1cc2ccc(O)c(O)c2oc1=O` [Compound 18], the EC50 in data set [1] came to 55.6 ± 1.48 µM; in data set [2], 91.2 ± 2.29 µM. In addition, the “reducing antioxidant power (FRAP)” value in data set [3] is on record as “this situation did not change”.

In the case of `O=c1ccc2ccc(O)c(O)c2o1` [Compound 1, 7,8-dihydroxycoumarin, reference compound], the EC50 worked out at 46.2 ± 1.45 µM in data set [1] and 159 ± 4.63 µM in data set [2]. Besides, the “reducing antioxidant power, fold higher than that of the standard antioxidant Trolox” value in data set [3] is 2.5 fold. Moreover, the half-life in data set [4] worked out at 20.3 min. Also, the “protection of mononuclear cells of umbilical blood from oxidative attack, compared with resveratrol” value in data set [5] is “stronger activities in protecting mononuclear cells of umbilical blood from oxidative attack than resveratrol”.

`O=C(O)c1cc2ccc(O)c(O)c2oc1=O` [Compound 16]: the results for the EC50 in data set [1] and in data set [2] were 37.7 ± 1.16 µM and 146 ± 5.77 µM, respectively. For the same compound, in data set [3], the “reducing antioxidant power (FRAP)” value is given as “little effect on its antioxidant activity”.

As to `O=c1cc(-c2ccccc2)c2ccc(O)c(O)c2o1` [Compound 3, 7,8-Dihydroxy-4-phenyl-2H-chromen-2-one], in data set [1], the “DPPH antioxidant activity compared with DAP 1, result in words” value is listed as “lower than that of DAP 1”. In addition, the EC50 in data set [1] came out at 55.6 ± 0.78 µM; in data set [2] it was 198 ± 28.2 µM. Further, in data set [3], the “reducing antioxidant power (FRAP)” value is on record as “decreased activities of daphnetin but were still superior to Trolox”.
